Results reported in patent publication US9382254B2, “Compounds and pharmaceutical compositions thereof for the treatment of cystic fibrosis” (Galapagos NV, priority 2013, dated 2016).

What was measured:
Assay type in all cases: cell-based
[1] = biological target: T1, CFTR ΔF508 mutant (Homo sapiens, UniProt P13569, DEL508-508); experiment: YFP-halide influx assay for the CFTR-ΔF508 mutation, gluconate buffer; details: CFBE41o- cells, forskolin 10.67 μM
T1 construct: expressed in transfected cells; host or cells: CFBE41o- (adenoviral transduction)
Method in brief: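 CFBE41o- cells adenovirally transduced with CFTR ΔF508 and YFP H148Q/I152L, then held 24 h at 27 °C or treated with CFTR modulator 24 h at 37 °C. I− quenching recorded for 7 s after injection; activity as 1-F/F0, EC50 from concentration plot.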

[2] = biological target: T1, CFTR ΔF508 mutant; experiment: YFP-halide influx assay for the CFTR-ΔF508 mutation (384 well, FDSS/μCell); details: CFBE41o- cells, CFTR-ΔF508, 1×D-PBS, fluorescence after 36 seconds
Method in brief: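 Potentiator read-out as 1−F/F0, F taken 36 s after iodide addition, EC50 fitted against compound concentration. Cells: CFBE41o- expressing ΔF508 CFTR plus halide-sensitive YFP via adenovirus, rescued by 27 °C for 24 h or 24 h modulator at 37 °C.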

[3] = biological target: T2, CFTR G551D mutant (Homo sapiens, UniProt P13569, G551D); experiment: YFP-halide influx assay for the CFTR-G551D mutation; details: HEK293 cells, forskolin 10.67 μM
T2 construct: expressed in transfected cells; host or cells: HEK293 (reverse transfection with plasmid)
Method in brief: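 HEK293 cells reverse-transfected with CFTR G551D and YFP H148Q/I152L/F47L halide sensor, expressed 24 h at 37 °C. Iodide-induced fluorescence quench recorded 7 s after I− injection; response = 1−F/F0, with EC50 from plot against compound concentration.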

T1 sequence (P13569 with tags, fused parts or gaps DEL508-508): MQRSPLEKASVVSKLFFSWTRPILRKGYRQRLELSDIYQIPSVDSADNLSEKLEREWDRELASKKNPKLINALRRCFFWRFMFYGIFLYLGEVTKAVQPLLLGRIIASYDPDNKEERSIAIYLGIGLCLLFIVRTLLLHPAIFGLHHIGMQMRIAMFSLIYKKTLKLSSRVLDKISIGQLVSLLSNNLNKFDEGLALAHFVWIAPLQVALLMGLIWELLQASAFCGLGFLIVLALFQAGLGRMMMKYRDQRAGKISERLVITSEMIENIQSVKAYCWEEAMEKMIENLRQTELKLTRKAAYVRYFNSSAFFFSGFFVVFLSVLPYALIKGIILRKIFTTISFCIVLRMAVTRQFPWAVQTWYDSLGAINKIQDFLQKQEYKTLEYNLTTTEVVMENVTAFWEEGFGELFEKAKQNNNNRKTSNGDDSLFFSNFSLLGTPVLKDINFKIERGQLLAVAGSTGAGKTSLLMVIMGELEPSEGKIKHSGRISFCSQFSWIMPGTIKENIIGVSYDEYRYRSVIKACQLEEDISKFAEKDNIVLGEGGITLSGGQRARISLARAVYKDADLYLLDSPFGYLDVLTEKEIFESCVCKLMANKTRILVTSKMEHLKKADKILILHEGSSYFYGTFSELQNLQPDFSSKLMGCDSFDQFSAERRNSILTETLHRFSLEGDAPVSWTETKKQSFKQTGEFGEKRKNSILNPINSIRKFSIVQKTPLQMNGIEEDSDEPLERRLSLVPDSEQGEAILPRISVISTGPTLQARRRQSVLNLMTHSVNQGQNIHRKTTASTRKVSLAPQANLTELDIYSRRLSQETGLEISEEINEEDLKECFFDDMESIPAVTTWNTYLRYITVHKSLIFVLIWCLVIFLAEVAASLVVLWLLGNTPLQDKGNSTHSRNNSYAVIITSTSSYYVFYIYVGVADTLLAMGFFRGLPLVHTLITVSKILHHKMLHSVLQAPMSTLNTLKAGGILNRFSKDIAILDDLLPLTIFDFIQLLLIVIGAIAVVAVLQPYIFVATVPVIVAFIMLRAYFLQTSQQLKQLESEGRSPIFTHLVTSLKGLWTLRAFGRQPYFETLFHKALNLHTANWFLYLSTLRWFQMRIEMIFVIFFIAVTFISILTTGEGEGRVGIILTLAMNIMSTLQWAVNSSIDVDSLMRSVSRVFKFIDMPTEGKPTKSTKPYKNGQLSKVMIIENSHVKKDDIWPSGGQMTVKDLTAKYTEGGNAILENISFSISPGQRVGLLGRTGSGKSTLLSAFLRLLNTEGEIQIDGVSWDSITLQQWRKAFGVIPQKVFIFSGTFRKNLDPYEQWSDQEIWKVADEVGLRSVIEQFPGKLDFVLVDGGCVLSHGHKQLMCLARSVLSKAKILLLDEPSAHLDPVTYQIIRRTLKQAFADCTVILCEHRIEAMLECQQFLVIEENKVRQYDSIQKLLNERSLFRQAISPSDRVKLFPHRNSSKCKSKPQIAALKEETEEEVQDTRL
T2 sequence (P13569 whole entry G551D): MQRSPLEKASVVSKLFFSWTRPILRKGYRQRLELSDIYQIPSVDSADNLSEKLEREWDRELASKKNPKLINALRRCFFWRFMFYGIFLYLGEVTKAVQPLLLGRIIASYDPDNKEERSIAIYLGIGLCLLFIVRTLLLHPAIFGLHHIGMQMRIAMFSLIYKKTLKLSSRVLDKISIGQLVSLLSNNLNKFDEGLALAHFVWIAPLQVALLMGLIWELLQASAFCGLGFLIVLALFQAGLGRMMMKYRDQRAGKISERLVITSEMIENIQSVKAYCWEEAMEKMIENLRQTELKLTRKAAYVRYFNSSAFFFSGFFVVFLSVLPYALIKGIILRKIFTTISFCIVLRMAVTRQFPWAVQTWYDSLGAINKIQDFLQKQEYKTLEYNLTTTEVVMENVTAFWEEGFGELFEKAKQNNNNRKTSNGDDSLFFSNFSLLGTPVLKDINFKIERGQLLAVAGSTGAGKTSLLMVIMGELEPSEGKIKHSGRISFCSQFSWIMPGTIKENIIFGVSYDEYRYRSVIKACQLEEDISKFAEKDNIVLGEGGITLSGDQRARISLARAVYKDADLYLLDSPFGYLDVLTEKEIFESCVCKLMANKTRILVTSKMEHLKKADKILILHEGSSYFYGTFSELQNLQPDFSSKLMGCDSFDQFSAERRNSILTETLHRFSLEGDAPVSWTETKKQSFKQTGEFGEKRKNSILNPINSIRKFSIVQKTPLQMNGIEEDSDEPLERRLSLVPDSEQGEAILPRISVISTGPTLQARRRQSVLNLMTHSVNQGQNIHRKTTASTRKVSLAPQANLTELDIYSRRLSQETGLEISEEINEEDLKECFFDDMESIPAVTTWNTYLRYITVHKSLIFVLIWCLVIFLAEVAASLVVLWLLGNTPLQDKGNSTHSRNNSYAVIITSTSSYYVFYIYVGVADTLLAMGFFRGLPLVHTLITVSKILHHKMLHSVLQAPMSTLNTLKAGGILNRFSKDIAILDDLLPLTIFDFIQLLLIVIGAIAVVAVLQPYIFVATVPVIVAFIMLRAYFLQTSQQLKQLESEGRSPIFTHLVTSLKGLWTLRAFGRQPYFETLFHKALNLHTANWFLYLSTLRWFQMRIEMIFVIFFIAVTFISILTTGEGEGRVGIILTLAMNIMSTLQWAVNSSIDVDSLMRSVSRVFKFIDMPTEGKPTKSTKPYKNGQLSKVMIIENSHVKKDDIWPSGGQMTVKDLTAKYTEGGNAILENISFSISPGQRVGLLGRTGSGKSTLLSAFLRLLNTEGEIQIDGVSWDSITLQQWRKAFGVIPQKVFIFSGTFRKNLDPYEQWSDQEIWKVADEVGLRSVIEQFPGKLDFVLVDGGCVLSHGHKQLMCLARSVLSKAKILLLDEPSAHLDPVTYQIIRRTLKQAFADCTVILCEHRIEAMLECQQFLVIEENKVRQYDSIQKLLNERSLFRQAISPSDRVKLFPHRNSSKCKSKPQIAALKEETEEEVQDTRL

| Structure (SMILES) | EC50 [1] | EC50 [2] | EC50 [3] |
| --- | --- | --- | --- |
| CCN(C)S(=O)(=O)c1cc(C(N)=O)c(NC(=O)c2ccc(C)s2)s1 [Compound 3, N-(3-carbamoyl-5-(N-ethyl-N-methylsulfamoyl)thiophen-2-yl)-5-methylthiophene-2-carboxamide] | 107 nM | 109 nM | – |
| CCN(CC)S(=O)(=O)c1cc(C(N)=O)c(NC(=O)c2ccc(C)s2)s1 [Compound 4, N-(3-carbamoyl-5-(N,N-diethylsulfamoyl)thiophen-2-yl)-5-methylthiophene-2-carboxamide] | 94 nM | 135 nM | – |
| Cc1ccc(C(=O)Nc2sc(S(=O)(=O)c3ccccc3)cc2C(N)=O)s1 [Compound 16, N-(3-carbamoyl-5-(phenylsulfonyl)thiophen-2-yl)-5-methylthiophene-2-carboxamide] | 99.7 nM | 187 nM | – |
| NC(=O)c1cc(S(=O)(=O)N2CCCCC2)sc1NC(=O)c1ccn[nH]1 [Compound 36, N-(3-carbamoyl-5-(piperidin-1-ylsulfonyl)thiophen-2-yl)-1H-pyrazole-3-carboxamide] | 92.3 nM | 13.1 nM | – |
| Cc1c(S(=O)(=O)c2ccccc2)sc(NC(=O)c2ccccc2F)c1C(N)=O [Compound 87, 2-(2-fluorobenzamido)-4-methyl-5-(phenylsulfonyl) thiophene-3-carboxamide] | 44.1 nM | 84.3 nM | – |
| CCc1cc(C(=O)Nc2sc(S(=O)(=O)c3ccccc3)cc2C(N)=O)n[nH]1 [Compound 95, N-(3-carbamoyl-5-(phenylsulfonyl)thiophen-2-yl)-5-ethyl-1H-pyrazole-3-carboxamide] | 99.4 nM | 101 nM | – |
| Cc1c(S(=O)(=O)c2ccccc2)sc(NC(=O)c2cc[nH]n2)c1C(N)=O [Compound 101, N-(3-carbamoyl-4-methyl-5-(phenylsulfonyl)thiophen-2-yl)-1H-pyrazole-3-carboxamide] | 20.5 nM | 26.8 nM | – |
| CCc1cc(C(=O)Nc2sc(S(=O)(=O)c3ccccc3)c(C)c2C(N)=O)n[nH]1 [Compound 103, N-(3-carbamoyl-4-methyl-5-(phenylsulfonyl)thiophen-2-yl)-5-ethyl-1H-pyrazole-3-carboxamide] | 38.4 nM | 54.6 nM | – |
| NC(=O)c1cc(S(=O)(=O)c2ccc(F)cc2)sc1NC(=O)c1ccn[nH]1 [Compound 109, N-(3-carbamoyl-5-(4-fluorophenylsulfonyl)thiophen-2-yl)-1H-pyrazole-3-carboxamide] | 28.6 nM | 28.9 nM | – |
| NC(=O)c1cc(S(=O)(=O)c2ccc(F)cc2)sc1NC(=O)c1ccccc1F [Compound 111, 2-(2-fluorobenzamido)-5-(4-fluorophenylsulfonyl) thiophene-3-carboxamide] | 84.3 nM | 199 nM | – |
| NC(=O)c1cc(S(=O)(=O)c2cccc(F)c2)sc1NC(=O)c1cc[nH]n1 [Compound 113, N-(3-carbamoyl-5-(3-fluorophenylsulfonyl)thiophen-2-yl)-1H-pyrazole-3-carboxamide] | 29.2 nM | 5.8 nM | – |
| CCc1cc(C(=O)Nc2sc(S(=O)(=O)c3cccc(F)c3)cc2C(N)=O)n[nH]1 [Compound 114, N-(3-carbamoyl-5-(3-fluorophenylsulfonyl)thiophen-2-yl)-5-ethyl-1H-pyrazole-3-carboxamide] | 90.7 nM | 102 nM | – |
| CCc1cc(C(=O)Nc2sc(S(=O)(=O)c3ccccc3F)cc2C(N)=O)n[nH]1 [Compound 116, N-(3-carbamoyl-5-(2-fluorophenylsulfonyl)thiophen-2-yl)-5-ethyl-1H-pyrazole-3-carboxamide] | 59.7 nM | 63.5 nM | – |
| NC(=O)c1cc(S(=O)(=O)c2ccc(F)c(F)c2)sc1NC(=O)c1cc[nH]n1 [Compound 118, N-(3-carbamoyl-5-(3,4-difluorophenylsulfonyl)thiophen-2-yl)-1H-pyrazole-3-carboxamide] | 36 nM | 9.6 nM | – |
| CCc1cc(C(=O)Nc2sc(S(=O)(=O)c3ccc(F)c(F)c3)cc2C(N)=O)n[nH]1 [Compound 119, N-(3-carbamoyl-5-(3,4-difluorophenylsulfonyl)thiophen-2-yl)-5-ethyl-1H-pyrazole-3-carboxamide] | 78.3 nM | 187 nM | – |
| CCc1ccccc1S(=O)(=O)c1cc(C(N)=O)c(NC(=O)c2ccccc2F)s1 [Compound 121, 5-(2-ethylphenylsulfonyl)-2-(2-fluorobenzamido) thiophene-3-carboxamide] | 74.9 nM | 292 nM | – |
| COC1CCN(S(=O)(=O)c2cc(C(N)=O)c(NC(=O)c3ccccc3F)s2)CC1 [Compound 123, 2-(2-fluorobenzamido)-5-(4-methoxypiperidin-1-ylsulfonyl)thiophene-3-carboxamide] | 76.9 nM | 76.4 nM | – |

| Structure (SMILES) | EC50 [1] | EC50 [2] | EC50 [3] |
| --- | --- | --- | --- |
| NC(=O)c1cc(S(=O)(=O)N2CCC(F)(F)CC2)sc1NC(=O)C1(O)CC1 [Compound 139, 5-(4,4-difluoropiperidin-1-ylsulfonyl)-2-(1-hydroxycyclopropanecarboxamido) thiophene-3-carboxamide] | 114 nM | 55.5 nM | – |
| CN(C1CC1)S(=O)(=O)c1cc(C(N)=O)c(NC(=O)c2ccccc2F)s1 [Compound 152, 5-(N-cyclopropyl-N-methylsulfamoyl)-2-(2-fluorobenzamido)thiophene-3-carboxamide] | 82.1 nM | 135 nM | – |
| CC(C)N(C)S(=O)(=O)c1cc(C(N)=O)c(NC(=O)c2ccccc2F)s1 [Compound 153, 2-(2-fluorobenzamido)-5-(N-isopropyl-N-methylsulfamoyl) thiophene-3-carboxamide] | 46 nM | 46 nM | – |
| CC(C)N(C(C)C)S(=O)(=O)c1cc(C(N)=O)c(NC(=O)c2ccccc2F)s1 [Compound 154, 5-(N,N-diisopropylsulfamoyl)-2-(2-fluorobenzamido) thiophene-3-carboxamide] | 105 nM | 427 nM | – |
| Cc1ccc(CN(C)S(=O)(=O)c2cc(C(N)=O)c(NC(=O)c3cc[nH]n3)s2)cc1 [Compound 170, N-(3-carbamoyl-5-(N-methyl-N-(4-methylbenzyl)sulfamoyl)thiophen-2-yl)-1H-pyrazole-3-carboxamide] | 38 nM | 184 nM | – |
| CN(c1ccc(F)cc1)S(=O)(=O)c1cc(C(N)=O)c(NC(=O)c2cc[nH]n2)s1 [Compound 173, 1H-Pyrazole-3-carboxylic acid {3-carbamoyl-5-[(4-fluoro-phenyl)-methyl-sulfamoyl]-thiophen-2-yl}-amide] | 21 nM | 15.8 nM | – |
| COc1ccc(OC)c(S(=O)(=O)c2cc(C(N)=O)c(NC(=O)c3ccccc3F)s2)c1 [Compound 182, 5-(2,5-dimethoxyphenylsulfonyl)-2-(2-fluorobenzamido)thiophene-3-carboxamide] | 97.9 nM | 433 nM | – |
| NC(=O)c1cc(S(=O)(=O)N2CCC(F)(F)CC2)sc1NC(=O)c1cc(C(F)(F)F)[nH]n1 [Compound 189, N-(3-carbmoyl-5-(4,4-difluoropiperidin-1-ylsulfonyl)thiophen-2-yl)-5-(trifluoromethyl)-1H-pyrazole-3-carboxamide] | 122 nM | – | 226 nM |
| NC(=O)c1cc(S(=O)(=O)N2CCOCC2)sc1NC(=O)C1(O)CCOCC1 [Compound 200, N-(3-carbamoyl-5-(morpholinosulfonyl)thiophen-2-yl)-4-hydroxytetrahydro-2H-pyran-4-carboxamide] | 3330 nM | – | – |
| CC(C)c1cc(C(=O)Nc2sc(S(=O)(=O)N3CCOCC3)cc2C(N)=O)c(O)c(C(C)C)c1 [Compound 201, 2-(2-hydroxy-3,5-diisopropylbenzamido)-5-(morpholinosulfonyl) thiophene-3-carboxamide] | 3330 nM | – | – |
| NC(=O)c1cc(S(=O)(=O)N2CCC(F)(F)CC2)sc1NC(=O)C1(O)CCOCC1 [Compound 202, N-(3-carbamoyl-5-(4,4-difluoropiperidin-1-ylsulfonyl)thiophen-2-yl)-4-hydroxytetrahydro-2H-pyran-4-carboxamide] | 706 nM | – | – |
| CC(C)(O)C(=O)Nc1sc(S(=O)(=O)N2CCOCC2)cc1C(N)=O [Compound 203, 2-(2-hydroxy-2-methylpropanamido)-5-(morpholinosulfonyl) thiophene-3-carboxamide] | 3330 nM | – | – |
| COCCCN(C)S(=O)(=O)c1cc(C(N)=O)c(NC(=O)c2cc[nH]n2)s1 [Compound 204, N-(3-carbamoyl-5-(N-(3-methoxypropyl)-N-methylsulfamoyl)thiophen-2-yl)-1H-pyrazole-3-carboxamide] | 218 nM | – | – |
| NC(=O)c1cc(S(=O)(=O)N2CC(F)C2)sc1NC(=O)c1cc[nH]n1 [Compound 205, N-(3-carbamoyl-5-(3-fluoroazetidin-1-ylsulfonyl)thiophen-2-yl)-1H-pyrazole-3-carboxamide] | 1150 nM | – | – |
| NC(=O)c1cc(S(=O)(=O)N2CCC2)sc1NC(=O)c1cc[nH]n1 [Compound 208, N-(5-(azetidin-1-ylsulfonyl)-3-carbamoylthiophen-2-yl)-1H-pyrazole-3-carboxamide] | 573 nM | – | – |
| CS(=O)(=O)c1cc(C(N)=O)c(NC(=O)c2ccccc2O)s1 [Compound 211, 2-(2-hydroxybenzamido)-5-(methylsulfonyl)thiophene-3-carboxamide] | 320 nM | – | – |
